Laboratory results taken from patent US20120016019A1, “PHARMACEUTICAL COMPOSITION FOR TREATING OR PREVENTING CANCER” (priority 2010, published 2012).
“And” between values parts separate entries of the source, which are not always exact repeats. Equal entries are not always repeated. Where two headings read alike, the source gives them in different places.

Assays:
HeLa = test: Cell counts, HeLa; format: cell-based
Description: As a result, LC-50 curves were generated in the 1st week.
In the 2nd plate, 7 d of the 1st week (LC-50) is the same as 0 h of the 2nd week (recovery).
At 0 h of the 2nd week, medium was exchanged with untreated medium for the remainder of the experiment. The untreated controls were not measured in the 2nd week (recovery) due to overconfluence by the end of the 1st week. As a result, Recovery curves were generated in the 2nd week.

PC-3 = details: for The absorbance, Mean value / The absorbance / The absorbance, group - Blank: PC-3, XTT 500 nm; for The absorbance: single wells
Description: (§1) Cancer cell lines HCC 1419, MCF-7, MDA-MB-468, SKBR3, PC3, HT1299, Saos-2, C-6, AsPc, MDA-MB-231, RKO, HeLa and TT, and normal cell lines HME 50 HT, BJ and CCD-1074sk were tested for changes in metabolism (XTT assay) and cell death (cell counts).
(§2) Cells were plated into 48-well Corning CellBind™ plates at densities of 20,000 cells for normal cells and 10,000˜20,000 cells for cancer cells. 24 to 48 h after plating, cells were treated with the composition according to the invention at concentrations of 4.5e-2M. The first time point treated with the composition of the invention is 0 h. At 3 days after the first treatment with the composition of the invention, medium was changed and the composition of the invention at the same concentrations were added to the cultured cells.
(§3) The XTT assay is an accepted analysis technique for viability and cytotoxicity of anticancer drugs or other pharmaceutical compositions. Cells were seeded in a 96-well tissue culture plate at a density of 10,000 cells for normal cells and 5,000 cells for cancer cells. After incubation period, the formazan dye formed was quantitated using an ELISA reader. The optimal wavelength used in experiments was 500 nm, and it was measured at 0 h, 12 h, 24 h, 48 h, 4 d and 7 d, respectively. The obtained values were generated using the software SoftMax Pro 4.8.
(§4) The cell viability was calculated according to the manufacturer's instructions as follows (the term “blank” means XTT in medium only):
(§5) Cellular cytotoxicity was calculated according to the manufacturer's instructions as follows: […]

C-6 = details: C-6, 1st week (LC50)
Description: as §1, §2, §3, §4, §5

Structure (SMILES): CC(=O)O[C@H]1C(=O)[C@@]2(C)[C@H]([C@H](OC(=O)c3ccccc3)[C@]3(O)C[C@H](OC(=O)[C@H](O)[C@@H](NC(=O)c4ccccc4)c4ccccc4)C(C)=C1C3(C)C)[C@]1(OC(C)=O)CO[C@@H]1C[C@@H]2O [Taxol]
- cell counts (HeLa; 1st week (LC50), 0 h): 158000 and 136000 and 184000
- cell counts, Mean value (HeLa; 1st week (LC50), 0 h): 159333
- cell counts (HeLa; 1st week (LC50), 24 h): 158000 and 276000 and 219000
- cell counts, Mean value (HeLa; 1st week (LC50), 24 h): 217667
- cell counts (HeLa; 1st week (LC50), 48 h): 105000 and 70000 and 79000
- cell counts, Mean value (HeLa; 1st week (LC50), 48 h): 84667
- cell counts (HeLa; 1st week (LC50), 4 d): 26000 and 39000 and 31000
- cell counts, Mean value (HeLa; 1st week (LC50), 4 d): 32000
- cell counts (HeLa; 1st week (LC50), 7 d): 36000 and 34000 and 32000
- cell counts, Mean value (HeLa; 1st week (LC50), 7 d): 34000
- cell counts (HeLa; 2nd week (recovery), 0 h): 31000 and 34000 and 35000
- cell counts, Mean value (HeLa; 2nd week (recovery), 0 h): 33333
- cell counts, Mean value (HeLa; 2nd week (recovery), 24 h): 23333
- cell counts (HeLa; 2nd week (recovery), 48 h): 12000 and 23500 and 22000
- cell counts, Mean value (HeLa; 2nd week (recovery), 48 h): 19167
- cell counts (HeLa; 2nd week (recovery), 4 d): 22000 and 18000 and 13000
- cell counts, Mean value (HeLa; 2nd week (recovery), 4 d): 17667
- cell counts (HeLa; 2nd week (recovery), 7 d): 18000
- cell counts, Mean value (HeLa; 2nd week (recovery), 7 d): 18000
- The absorbance, Mean value (PC-3; 1st week (LC50), 0 h): 0.693
- The absorbance (PC-3; 1st week (LC50), 0 h): 0.7147 and 0.7027 and 0.6625
- The absorbance, Mean value (PC-3; 1st week (LC50), 12 h): 0.567
- The absorbance (PC-3; 1st week (LC50), 12 h): 0.5126 and 0.6101 and 0.5779
- The absorbance, Mean value (PC-3; 1st week (LC50), 24 h): 0.692
- The absorbance, group - Blank (PC-3; 1st week (LC50), 24 h): 0.5326
- The absorbance (PC-3; 1st week (LC50), 24 h): 0.7192 and 0.6542 and 0.7011
- The absorbance, Mean value (PC-3; 1st week (LC50), 48 h): 1.747
- The absorbance, group - Blank (PC-3; 1st week (LC50), 48 h): 1.5885
- The absorbance (PC-3; 1st week (LC50), 48 h): 1.9128 and 1.6455 and 1.6838
- The absorbance, Mean value (PC-3; 1st week (LC50), 4 d): 1.266
- The absorbance, group - Blank (PC-3; 1st week (LC50), 4 d): 1.1072
- The absorbance (PC-3; 1st week (LC50), 4 d): 1.1723 and 1.5491 and 1.0768
- The absorbance, Mean value (PC-3; 2nd week (recovery), 0 h): 0.5354
- The absorbance (PC-3; 2nd week (recovery), 0 h): 0.5937 and 0.5232 and 0.4893
- The absorbance, Mean value (PC-3; 2nd week (recovery), 24 h): 1.6693
- The absorbance, group - Blank (PC-3; 2nd week (recovery), 24 h): 1.5104
- The absorbance (PC-3; 2nd week (recovery), 24 h): 1.3804 and 1.6987 and 1.9288
- The absorbance, Mean value (PC-3; 2nd week (recovery), 48 h): 0.7660
- The absorbance, group - Blank (PC-3; 2nd week (recovery), 48 h): 0.6071
- The absorbance (PC-3; 2nd week (recovery), 48 h): 0.795 and 0.7948 and 0.7081
- The absorbance, Mean value (PC-3; 2nd week (recovery), 4 d): 1.2875
- The absorbance, group - Blank (PC-3; 2nd week (recovery), 4 d): 1.1286
- The cytotoxicity (PC-3; human, 12 h, 220 nM): 0.5920
- The viability (PC-3; human, 12 h, 220 nM): 0.3649
- The absorbance (C-6; 0 h): 2.6477 and 2.6197 and 2.482
- The absorbance, Mean value (C-6; 0 h): 2.5831
- The absorbance, group - Blank (C-6; 0 h): 2.0608
- The absorbance (C-6; 12 h): 2.851 and 2.8475 and 2.6595
- The absorbance, Mean value (C-6; 12 h): 2.7860
- The absorbance, group - Blank (C-6; 12 h): 2.2637
- The absorbance (C-6; 24 h): 2.6263 and 2.6408 and 2.7106
- The absorbance, Mean value (C-6; 24 h): 2.6592
- The absorbance, group - Blank (C-6; 24 h): 2.1369
- The absorbance (C-6; 48 h): 2.5907 and 2.3173 and 2.5122
- The absorbance, Mean value (C-6; 48 h): 2.4734
- The absorbance, group - Blank (C-6; 48 h): 1.9511
- The absorbance (C-6; 4 d): 3.4031 and 2.4181 and 2.3613
